Results on two molecules are retold here after US10865387B2, “Methods of obtaining pancreatic endocrine cells” (The University Court of the University of Aberdeen, priority 2014, dated 2020).

Experiment [1] has as its system human exocrine enriched fraction (EEF). Nature of the experiment: RT-qPCR of hormone and transcription factor mRNA in reprogrammed exocrine cells. In kind it is cell-based. How it is done:
After 48 h the cells were incubated for another 72 h in serum free medium (SFM) prepared with RPMI 1640, insulin-transferrin-selenium (Gibco) and 1% bovine serum albumin (Sigma), supplemented with 10 μM SB431542, 2 μM Y27632, 1 μM 5-Aza-2′deoxycytidine and 10 mM sodium butyrate (all from Sigma). On the next day the cells were incubated for 4 h with the adenoviruses encoding pancreatic transcription factors. On the following day the medium was changed for SFM supplemented with 1 nM betacellulin (R&D systems, Abingdon, UK), 10 nM exendin-4 and 10 mM nicotinamide (both from Sigma). The medium was changed every two days for another 6 days before harvesting.
Recombinant adenoviruses encoding the mouse sequences of PDX1, MAFA, NGN3 and PAX4 (Swales et al., 2012) were prepared using the Ad-Easy™ system (Agilent Technologies, Edinburgh, UK). The adenoviruses containing PDX1 and NGN3 also expressed GFP through a downstream CMV promoter. Viral transduction was performed in SFM for 4 h at a multiplicity of infection (MOI) of 100 for each virus.
QRT/PCR was performed as previously described (Lima et al., 2012. Data were analysed using the 2^−ΔΔCT method. Statistical analysis was performed using PRISM software and the student's t-test or one-way ANOVA followed by the Dunnet's post-hoc test, as appropriate. The list of TaqMan probes are listed in Table 1:
Knockdown of Arx in transdifferentiating cells was performed by transfection with a pool of specific targeting small inhibitory RNAs, or scrambled controls (Dharmacon, Loughborough, UK). 100 nM siRNA was transfected on day 6 of the transdifferentiation protocol using Dharmafect 1 (Dharmacon), according to the manufacturer's instructions.
EEF cells were plated directly from the low purity fractions obtained following islet isolation. EEF cells were cultured as a monolayer for two days and then treated with SB, Y2, Aza and NaBu for 3 days. […]

Experiment [2] shares this test system. The experiment is described as follows: Insulin, C-peptide and glucagon content of cell lysates by ELISA. The settings on record: reprogrammed (siARX) cells with ZnCl2 10 μM; FIG. 15. In kind it is cell-based. An excerpt:
FIG. 10. ARX inhibition enhances beta cell maturation and decreases alpha cell differentiation. (A) C-peptide release by untreated (N/A), transdifferentiated cells in the absence of siARX (REP), siARX transdifferentiated cells (siARX) and in the absence of PAX4 (siARX-PAX4). C-peptide was detected from the culture medium by a specific human C-peptide ELISA. Data are representative of triplicate experiments. (B) Insulin, C-peptide and Proinsulin content of untreated, transdifferentiated cells in the absence of siARX (REP), siARX transdifferentiated cells (siARX) and human islets. The content of each peptide was detected by specific human ELISAs after cell lysis and normalised to the total protein content. Data are representative of triplicate experiments. (C) Glucagon content of untreated, transdifferentiated cells in the absence of siARX (REP), siARX transdifferentiated cells (siARX) and human islets. Glucagon was detected by a specific human ELISA after cell lysis and normalised to the total protein content. Data are representative of triplicate experiments. […]
[…] were measured using a human glucagon Quantikine ELISA kit (R&D Systems, Abingdon, UK), a human C-peptide ELISA kit (Millipore, Livingston, UK), a human prosinsulin ELISA kit or a human insulin ELISA kit (both from Mercodia, Uppsala, Sweden). […]

Setting [3] is: cells reprogrammed (siARX) with ZnCl2 10 μM, FIG. 14.

`[Cl-].[Cl-].[Zn+2]` [ZnCl2]: in experiment [1] (setting [3]), the insulin gene expression result is on record as “significant effect” and the “mRNA encoding PAX4” value is “increased levels”. Besides, in experiment [2], the “insulin (C-peptide) protein content” value is reported as “stimulatory effect”.
Consider laminin, for which the “efficiency of reprogramming (relative expression of insulin) on extracellular matrix” value in experiment [1] (PDX1/MAFA/NGN3/PAX4 protocol, compared with fibronectin, poly-lysine, collagen type I and IV, FIG. 4) is “improves the efficiency of reprogramming”.
